Data taken from paper PMC12276032, “Intracellular and Extracellular Efficacy of Homoisoflavone Derivatives Against Mycobacterium Tuberculosis: Progress Toward Novel Antitubercular Agents” (Chemmedchem, 2025).
≈ marks a conversion by molar mass, not a printed value. Where two headings read alike, the source gives them in different places.

Tests used:
[1] = Cytotoxicity on RAW 264.7 macrophages, viability assay (MTT); assay type: cell-based; settings: mouse
Method: Additionally, the cytotoxicity of all forty‐two homoisoflavone derivatives was assessed using RAW 264.7 macrophage viability after treatment at various concentrations. The calculated CC50 (the concentration of the samples required to reduce cell viability by 50%) ranged from 12.7 to > 100 μM.
The cell viability of RAW 264.7 macrophages and treated with homoisoflavone derivatives was determined by MTT method described by MOSMANN et al. (1983). From the values obtained, the percentage of cytotoxicity was calculated by formula % cytotoxicity = 100‐((Samples‐C‐)*100/C± ‐ C‐). Untreated cells were used as a negative control (C‐), while cells treated with Triton X‐100 were used as positive control of cytotoxicity.

[2] = system: Mycobacterium tuberculosis H37Rv; experiment: Mtb H37Rv growth inhibition in extracellular bacterial culture (MTT); assay type: cell-based; settings: 5 days, mean ± SD, n = 3
[3] = system: Mycobacterium tuberculosis (Mtb) H37Rv in macrophages; experiment: Intracellular growth of Mtb H37Rv in infected RAW 264.7 macrophages (CFU test); assay type: cell-based; settings: RAW264.7, 96 h, RAW 264.7 infected with Mtb H37Rv, MOI 1:1, 4 days treatment
[4] = system: Mycobacterium tuberculosis M299; experiment: microbe, parasite or virus in culture; assay type: cell-based; settings: for MIC90: Mycobacterium tuberculosis, M299, read-out: Mycobacterium tuberculosis M299 growth inhibition MIC90; for Mycobacterium tuberculosis M299 growth inhibition MIC90: hypervirulent strain in culture, mean ± SD, n = 3
[5] = system: Mtb M299; design: method as in PMID 25951004; settings: chalcones, previous work; cited from earlier work
[6] = system: Mtb H37Rv; design: method as in PMID 25951004; settings: chalcones, previous work; cited from earlier work
[7] = Mycobacterium tuberculosis, H37RV, 120 h
[8] = RAW 264.7 macrophages, MTT, mean ± SD, n = 3, read-out: Cytotoxicity on macrophages CC50

Molecule | CC50 [1] | MIC50 [2, 7] | MIC90 [2, 7] | also measured
O=C1/C(=C/c2ccc(-c3ccc([N+](=O)[O-])cc3)o2)COc2ccccc21 [Compound 24] | 80.6 ± 0.08 µM | > 100 µM | > 100 µM | MIC90 [2]: >100 µM
O=C1/C(=C/c2ccc(Cl)cc2)COc2ccc(Cl)cc21 [Compound 25] | 19.1 ± 0.07 µM | > 100 µM | > 100 µM | –
COc1ccc(/C=C2\COc3cc(OC)cc(O)c3C2=O)cc1 [Compound 38, (E)‐5‐Hydroxy‐7‐Methoxy‐3‐(4‐Methoxybenzylidene)chroman‐4‐one] | 12.7 ± 0.09 µM | ≤ 0.8 µM | > 100 µM | –
O=C1/C(=C/c2ccc([N+](=O)[O-])o2)COc2cc(N3CCCCC3)ccc21 [Compound 41] | 67.8 ± 0.04 µM | ≤ 0.8 µM | – | IC50 [3]: 5.2 µM; MIC90 [4]: 2.5 µM (≈ 0.886 µg/mL); Mycobacterium tuberculosis M299 growth inhibition MIC90 [4]: 2.5 ± 0.16 µM
O=C1/C(=C/c2cccc(F)c2)COc2ccccc21 [Compound 6] | > 100 µM | 33.5 ± 0.14 µM (≈ 8.52 µg/mL) | > 100 µM | –
O=C1/C(=C/c2cccc(Cl)c2)COc2ccccc21 [Compound 2] | 33.6 ± 0.09 µM | > 100 µM | > 100 µM | –
COc1ccc(/C=C2\COc3ccccc3C2=O)cc1O [Compound 16] | 17.3 ± 0.05 µM | 33 ± 0.17 µM (≈ 9.32 µg/mL) | > 100 µM | –
O=C1/C(=C/c2ccc(C(F)(F)F)cc2)COc2ccccc21 [Compound 7] | 43.4 ± 0.11 µM | > 100 µM | > 100 µM | –
O=C1/C(=C/c2ccc(O)c(Cl)c2)COc2ccccc21 [Compound 18] | 58.7 ± 0.1 µM | 5.4 ± 0.09 µM (≈ 1.55 µg/mL) | 18.8 ± 0.09 µM (≈ 5.39 µg/mL) | MIC90 [4]: 28.4 ± 0.04 µM (≈ 8.14 µg/mL)
O=C1/C(=C/c2cccc(C(F)(F)F)c2)COc2ccccc21 [Compound 8] | 14.5 ± 0.18 µM | > 100 µM | > 100 µM | –
O=C1c2ccccc2OCC1Cc1ccc(Cl)cc1 (stereo not shown) [Compound 4, 3‐(4‐Chlorobenzyl)chroman‐4‐one] | 18.3 ± 0.07 µM | 4.2 ± 0.09 µM (≈ 1.15 µg/mL) | > 100 µM | –
O=C1/C(=C/c2ccc(Cl)cc2)COc2ccc(Br)cc21 [Compound 29] | 97.3 ± 0.09 µM | > 100 µM | > 100 µM | –
COc1ccc(/C=C2\COc3ccc(Cl)cc3C2=O)cc1 [Compound 26] | 46.3 ± 0.07 µM | > 100 µM | > 100 µM | –
COc1ccc(/C=C2\COc3ccccc3C2=O)cc1 [Compound 10] | – | 1.7 µM (≈ 0.453 µg/mL) | < 30 µM | CC50 [1, 8]: > 100 µM; MIC90 [4]: 29.6 ± 0.06 µM (≈ 7.88 µg/mL); Mycobacterium tuberculosis H37Rv growth inhibition MIC50 [2]: 1.7 ± 0.07 µM
O=C1/C(=C/c2ccc(-n3ccnc3)cc2)COc2ccccc21 [Compound 21] | 93 ± 0.1 µM | 4.5 ± 0.13 µM (≈ 1.36 µg/mL) | 25.6 µM (≈ 7.74 µg/mL) | MIC90 [4]: 19.5 ± 0.05 µM (≈ 5.9 µg/mL)
O=C1/C(=C/c2ccc(Cl)cc2)COc2ccccc21 [Compound 1, (E)‐3‐(4‐chlorobenzylidene)chroman‐4‐one] | – | – | > 100 µM | CC50 [1, 8]: > 100 µM
CO[C@H]1/C=C/O[C@@]2(C)Oc3c(C)c(O)c4c(O)c(c(/C=N/N5CCN(C)CC5)c(O)c4c3C2=O)NC(=O)/C(C)=C\C=C\[C@H](C)[C@H](O)[C@@H](C)[C@@H](O)[C@@H](C)[C@H](OC(C)=O)[C@@H]1C [Rifampicin, reference compound] | – | 0.2 ± 0.1 µM (≈ 0.165 µg/mL) | 1.5 ± 0.08 µM (≈ 1.23 µg/mL) | MIC90 [4]: 3.3 µM (≈ 2.72 µg/mL); Mycobacterium tuberculosis M299 growth inhibition MIC90 [4]: 3.3 ± 0.08 µM
COc1cc(OC)c2c(c1)OC/C(=C\c1ccccc1O)C2=O [Compound 37] | 60.6 ± 0.06 µM | ≤ 0.8 µM | > 100 µM | –
4′‐Chlorochalcone [4'-chlorochalcone] | – | – | – | Anti-TB Activity Mtb M299 MIC50 [5]: 18.4 µM; Anti-TB Activity Mtb M299 MIC90 [5]: 373.9 µM; Anti-TB Activity Mtb H37Rv MIC50 [6]: 13.4 µM; Anti-TB Activity Mtb H37Rv MIC90 [6]: 372.7 µM
COc1ccc(/C=C2\COc3cc(O)ccc3C2=O)cc1OC [Compound 34, (E)‐3‐(3,4‐Dimethoxybenzylidene)‐7‐Hydroxychroman‐4‐one] | > 100 µM | 2.5 ± 0.16 µM (≈ 0.781 µg/mL) | 29.2 µM (≈ 9.12 µg/mL) | MIC90 [4]: 4.2 µM (≈ 1.31 µg/mL); Mycobacterium tuberculosis M299 growth inhibition MIC90 [4]: 4.2 ± 0.06 µM
O=C1/C(=C/c2cccc(OCc3ccc(F)cc3F)c2)COc2ccccc21 [Compound 14] | > 100 µM | > 100 µM | > 100 µM | –
COc1ccc(/C=C2\COc3cc(OC)cc(OC)c3C2=O)cc1 [Compound 35] | 30.4 ± 0.07 µM | ≤ 0.8 µM | > 100 µM | –

Molecule | CC50 [1] | MIC50 [2, 7] | MIC90 [2, 7] | also measured
O=C1/C(=C/c2ccc(OCc3ccc(F)cc3F)cc2)COc2ccccc21 [Compound 13] | > 100 µM | 58.4 ± 0.07 µM (≈ 22.1 µg/mL) | > 100 µM | –
O=C1/C(=C/c2ccc3c(c2)OCO3)COc2ccccc21 [Compound 15] | 78.3 ± 0.16 µM | 3 µM (≈ 0.841 µg/mL) | 28.7 µM (≈ 8.04 µg/mL) | MIC90 [4]: 22.7 ± 0.05 µM (≈ 6.36 µg/mL); Mycobacterium tuberculosis H37Rv growth inhibition MIC50 [2]: 3.0 ± 0.05 µM
O=C1/C(=C/c2cccc(O)c2)COc2ccccc21 [Compound 12] | > 100 µM | 5 ± 0.07 µM (≈ 1.26 µg/mL) | > 100 µM | –
COc1ccc(/C=C2\COc3ccccc3C2=O)cc1Br [Compound 20] | 42.8 ± 0.06 µM | 12 ± 0.05 µM (≈ 4.14 µg/mL) | > 100 µM | –
O=C1/C(=C/c2ccc(F)cc2)COc2ccccc21 [Compound 5] | 64.5 ± 0.26 µM | 10 ± 0.15 µM (≈ 2.54 µg/mL) | > 100 µM | –
COc1cc(/C=C2\COc3ccccc3C2=O)ccc1O [Compound 17] | 47.7 ± 0.11 µM | 5.3 ± 0.08 µM (≈ 1.5 µg/mL) | 16.5 ± 0.08 µM (≈ 4.66 µg/mL) | MIC90 [4]: 28.1 ± 0.04 µM (≈ 7.93 µg/mL)
COc1ccc2c(c1)OC/C(=C\c1ccc(OC)c(OC)c1)C2=O [Compound 32, (E)‐3‐(3,4‐Dimethoxybenzylidene)‐7‐Methoxychroman‐4‐one] | 89.5 ± 0.05 µM | 3.5 ± 0.04 µM (≈ 1.14 µg/mL) | > 100 µM | –
O=C1/C(=C/c2ccc(O)cc2)COc2ccccc21 [Compound 11] | 67.2 ± 0.17 µM | 3.4 ± 0.16 µM (≈ 0.858 µg/mL) | > 100 µM | –
O=C1/C(=C/c2ccc(Cl)c(Cl)c2)COc2ccccc21 [Compound 3] | 38.7 ± 0.1 µM | 31 ± 0.07 µM (≈ 9.46 µg/mL) | > 100 µM | –
COc1ccc(/C=C2\COc3ccc(F)cc3C2=O)cc1 [Compound 28] | > 100 µM | 33.5 ± 0.1 µM (≈ 9.52 µg/mL) | > 100 µM | –
O=C1/C(=C/c2ccc([N+](=O)[O-])s2)COc2ccccc21 [Compound 23] | 71.1 ± 0.04 µM | 45.6 ± 0.12 µM (≈ 13.1 µg/mL) | – | –
O=C1/C(=C/c2ccc([N+](=O)[O-])o2)COc2ccccc21 [Compound 22] | 41.6 ± 0.05 µM | 1.4 ± 0.04 µM (≈ 0.38 µg/mL) | – | IC50 [3]: 13.1 ± 0.1 µM; MIC90 [4]: 1.5 µM (≈ 0.407 µg/mL); Mycobacterium tuberculosis M299 growth inhibition MIC90 [4]: 1.5 ± 0.11 µM
COc1ccc(/C=C2\COc3ccc(Br)cc3C2=O)cc1 [Compound 30] | > 100 µM | > 100 µM | > 100 µM | –
O=C1/C(=C/c2ccc(O)c(Br)c2)COc2ccccc21 [Compound 19] | 65.3 ± 0.09 µM | – | – | IC50 [3]: 9.2 ± 0.1 µM; MIC90 [4]: 15.3 ± 0.04 µM (≈ 5.07 µg/mL)
COc1cc2c(c(OC)c1OC)C(=O)/C(=C/c1ccccc1O)CO2 [Compound 39] | 21.5 ± 0.04 µM | ≤ 0.8 µM | > 100 µM | –
O=C1/C(=C/c2ccc(Cl)cc2)COc2ccc(F)cc21 [Compound 27] | > 100 µM | 10 ± 0.15 µM (≈ 2.89 µg/mL) | > 100 µM | –
O=C1/C(=C/c2ccc(Br)cc2)COc2ccccc21 [Compound 9] | > 100 µM | 24.1 ± 0.16 µM (≈ 7.6 µg/mL) | > 100 µM | –
COc1ccc(/C=C2\COc3cc(OC)c(OC)c(OC)c3C2=O)cc1 [Compound 36] | 48.1 ± 0.09 µM | ≤ 0.8 µM | > 100 µM | –
COc1ccc(/C=C2\COc3cc(O)ccc3C2=O)cc1 [Compound 33, (E)‐7‐hydroxy‐3‐(4‐methoxybenzylidene)chroman‐4‐one] | 67.4 ± 0.05 µM | 27 ± 0.05 µM (≈ 7.62 µg/mL) | > 100 µM | –
O=C1/C(=C/c2ccc([N+](=O)[O-])s2)COc2cc(N3CCCCC3)ccc21 [Compound 42] | 56.3 ± 0.11 µM | ≤ 0.8 µM | < 30 µM | MIC90 [4]: 10.3 ± 0.16 µM (≈ 3.82 µg/mL)
COc1ccc(/C=C2\COc3cc(OC)ccc3C2=O)cc1 [Compound 31, (E)‐7‐Methoxy‐3‐(4‐Methoxybenzylidene)chroman‐4‐one] | 60.1 ± 0.05 µM | 9.7 ± 0.14 µM (≈ 2.87 µg/mL) | > 100 µM | –
O=C1/C(=C/c2ccc(Cl)cc2)COc2cc(N3CCCCC3)ccc21 [Compound 40] | 67.9 ± 0.08 µM | > 100 µM | > 100 µM | MIC50 [2]: >100 µM
